Assay results taken from patent publication US8765184B2 (Stanipharm, priority 2009, dated 2014).

Assay: Stability of the active substance throughout the process by high performance liquid chromatography
Type: physicochemical
Settings: HPLC; purity/titre and related substance profile compared with the starting product, both tests

- stability throughout the process: good stability
SMILES: CO[C@H]1C[C@@H]2CC[C@@H](C)[C@@](O)(O2)C(=O)C(=O)N2CCCC[C@H]2C(=O)O[C@H]([C@H](C)C[C@@H]2CC[C@@H](O)[C@H](OC)C2)CC(=O)[C@H](C)/C=C(\C)[C@@H](O)[C@@H](OC)C(=O)[C@H](C)C[C@H](C)/C=C/C=C/C=C/1C [sirolimus]
